Measured values reported in patent US10907219B2, “Compositions and methods for controlling cellular function” (STC.UNM, priority 2014, dated 2021).

Tests used:
[1] = tested on: HEK 293T inducible EGFP reporter cell line (VP-PYL and GAL4DBD-ABI); test: Light-induced EGFP expression; type: cell-based
From the text: To confirm that the photo-regenerated ABA is biologically functional, we determined whether it can be employed to induce PYL-ABI dimerization in an ABA-inducible transcriptional activation system using an established HEK 293T inducible EGFP reporter cell line. The cell line was created with both the ABA-responsive split transcriptional activator DNA fragment (VP-PYL and GAL4DBD-ABI linked by IRES; Liang et al., 2011, Sci. Signal. 4, rs2) and an inducible EGFP DNA fragment (with 5×UAS and the IL-2 minimal promoter) inserted into the genome (FIG. 21A). EGFP expression was activated through the recruitment of VP16AD to the EGFP gene in the presence of ABA. 24 hours after plating the cells, 10 μM of ABA, pre-irradiated ABA-DMNB products, or non-irradiated ABA-DMNB were separately added to the cells and incubated for an additional eight hours. EGFP expression was then determined using a fluorescence microscopy.
Cell culture and transfection: CHO cells and HEK 293T EGFP reporter cells (provided by Dr. Gerald R. Crabtree) were cultured in Dulbecco's modified Eagle's medium (DMEM; GIBCO, Life Technologies, Carlsbad, Calif.) with 10% FBS (Atlanta Biologicals, Inc., Norcross, Ga.), 1×GlutaMAX (GIBCO, Life Technologies, Carlsbad, Calif.), and 1× penicillin/streptomycin (Pen/Strep; GIBCO, Life Technologies, Carlsbad, Calif.). 15,000-50,000 ells were plated in a 24-well or 8-well plate for 24 hours before transfection. DNA constructs (0.1 μg-0.5 μg) were added to 50× (v/w) Opti-MEM (GIBCO, Life Technologies, Carlsbad, Calif.), and then 3× (v/w) PEI (Polysciences, Inc., Warrington, Pa.) was mixed with the DNA. The mixture was incubated for 20 minutes at room temperature before adding it to cell cultures. The cells were grown for one day after transfection before experiments were performed.
Photo-irradiation: Irradiation at 365 nm was performed with an Axio Observer (Carl Zeiss AG, Oberkochen, Germany) microscope with an HBO103 W/2 mercury arc lamp (Carl Zeiss AG, Oberkochen, Germany). Irradiation was performed by using a DAPI filter (Carl Zeiss AG, Oberkochen, Germany), set with peak excitation at 365 nm (power density: 23 mW cm^2) and a spectral width of 50 nm. No objective lens was used for whole-well irradiation, which created an area of illumination that nearly completely covered one well of a 24-well plate. Light was transmitted through the bottom of the well of polystyrene plate. Irradiation at 405 nm was performed by using an adjustable focus violet purple laser pointer (LazerPoint SKU 0733579), with an excitation wavelength of 405 nm and 1000 mW intensity positioned 8 cm above the bottom of either a 96-well or 24-well plate and irradiated through the polystyrene lid. […]

[2] = Chemical stability of ABA-HP in HEPES/DMSO (HPLC); type: physicochemical; settings: 1 mM, 50% HEPES/DMSO pH 7.4, 37° C., 24 hours
Experimental: (§1) Chemical stability and reactivity of ABA-HP towards H2O2: ABA-HP chemical stability: 1 mM ABA-HP (in DMSO) was incubated in 50% HEPES/DMSO (10 mM HEPES, pH 7.4) for 24 hours at 37° C. HPLC results were detected at 0 minutes, 20 minutes, 40 minutes, 60 minutes, 80 minutes, 100 minutes, 120 minutes, 240 minutes, and 24 hours. ABA-HP reactivity towards H2O2: 1 mM ABA-HP was incubated with 5 mM (5 eq) H2O2 in 50% HEPES/DMSO (10 mM HEPES, pH 7.4) at 37° C. HPLC results were detected at 0 minutes, 20 minutes, 40 minutes, 80 minutes, 100 minutes, 120 minutes, and 240 minutes (FIGS. 1c, 4a and 4b). 100 mM H2O2 was diluted with 11 μL of 30% (10 M) stock H2O2 (VWR) and 989 μL of ddH2O. […] HPLC chromatograms were acquired using an ULTIMATE 3000 LC System (Thermo Fisher Scientific, Waltham, Mass.) with ACCLAIM 120 Å, C18, 3 μm analytical (4.6×100 mm) column (Thermo Fisher Scientific, Waltham, Mass.). Chromatographic conditions: eluent A: 0.1% v/v TFA in water; eluent B: 0.1% v/v TFA in acetonitrile. ABA in ethanol or ABA-HP in DMSO was eluted at a flow rate of 0.750 ml/min monitored at a wavelength of 260 nm. 0-12 min (linear): 95% A, 5% B to 5% A, 95% B; 12-15 min: 5% A, 95% B; 15-17 min (linear): 5% A, 95% B to 95% A, 5% B. Generation of ABA was quantified by the peak area of ABA out of the total peak area.

[3] = ABA-HP reactivity towards H2O2 (HPLC); type: physicochemical; settings: 1 mM + H2O2 (5 eq), 50% HEPES/DMSO, 37° C.
Experimental: as §1

[4] = 10 μM, not irradiated, eight hours

| Structure (SMILES) | eGFP expression [1, 4] | eGFP expression ([1]; 10 μM, pre-irradiated (pre-photocleaved) products, eight hours) | eGFP expression ([1]; irradiated in cell culture, 365 nm) | chemical stability in biological buffer [2] | completion of transformation to ABA [3] | start of conversion back to ABA [3] |
| --- | --- | --- | --- | --- | --- | --- |
| CC1=CC(=O)CC(C)(C)C1(O)/C=C/C(C)=C\C(=O)O (stereo not shown) [ABA, abscisic acid, reference compound] | induced EGFP production | – | – | – | – | – |
| COc1cc(COC(=O)/C=C(C)\C=C\[C@@]2(O)C(C)=CC(=O)CC2(C)C)c([N+](=O)[O-])cc1OC [ABA-DMNB] | did not induce EGFP expression | induced EGFP production | showed EGFP expression | – | – | – |
| CC1=CC(=O)CC(C)(C)[C@@]1(O)/C=C/C(C)=C\C(=O)OCc1ccc(B2OC(C)(C)C(C)(C)O2)cc1 [ABA-HP] | – | – | – | stable in biological buffer at 37 °C throughout the 24-hour observation period | completed in four hours | within minutes |
